Consider 64 compounds from a melting point compilation (Tetko et al.; mined from patent text by program, amines drawn as free bases though some values may be those of a salt).

One may read the melting point as the temperature, or range, at which the solid turns liquid. Compound `CC(C)(O)c1cnc2c(NC(=O)c3c(Cl)cccc3Cl)cccc2c1` displayed a melting point of 187 to 189 °C.

Regarding `Cn1nnnc1Cc1ccc2c(c1)c(C1=CCN(CCN3CCNC3=O)CC1)cn2-c1ccc(F)cc1`, the melting point was 174 to 176 °C.

In turn, `CCCOc1ccc(F)cc1C1=NC(=O)C2=NC=NC2=N1` had a melting point of 238 °C.

For the compound `COc1ccc(NC(=O)Nc2ccccc2)cc1`, the melting point fell in the range of 196 to 198 °C.

The compound `O=c1oc(-c2ccc(OCCCC(F)(F)F)cc2)nn1CCO` had a melting point of 118 °C.

For the compound `CC1(C)C=C(c2c(N)c(=O)c2=O)c2cc(C#N)ccc2O1`, the melting point was over 250 °C.

In turn, `CCCCCC(CC(=O)Nc1cc(C(N)=O)ccc1C(C)(C)C)c1cc(Br)c(OC)cc1OC` (centres undefined) returned a melting point of 102 to 104 °C.

Compound `COc1ccc(-c2cc(Sc3ccc([N+](=O)[O-])cc3[N+](=O)[O-])sc2-c2ccc(OC)cc2)cc1` displayed a melting point of 143 to 145 °C.

`Cn1cc(-c2cccc(C(F)(F)F)c2)c(=O)c(-c2ccccc2F)c1` yielded a melting point of 152 to 154 °C.

Consider `Cn1c2c(c3c(Cl)cccc31)CCOC2(C)CC(=O)O` (centres undefined), for which the melting point was 105 to 110 °C.

On to `N#Cc1cnc2cnc(F)cc2c1Nc1ccc(F)c(Cl)c1`, for which the melting point lay in the range of 108 to 111 °C.

Compound `COc1ccc(Nc2nc3cc4c(cc3[nH]2)C(C)(C)CC(=O)N4)cc1` displayed a melting point of 283 to 287 °C.

`CCNC1Cc2c[nH]c3ccc(OC)c(c23)C1(C)O` (centres undefined) returned a melting point of 185 to 187 °C.

Consider `CCCOc1c(OC)cc(N)c2ncccc12`, for which the melting point is 73 to 74 °C.

Turning to `O=C(O)c1cc(S)c(Cl)cc1Cl`, the melting point was in the range of 254 to 255 °C.

`CS(=O)(=O)N1CCC(NC(=O)Nc2ccc(F)cc2)CC1` came in with a melting point of 186 to 188 °C.

On to `C1=C(CCc2ccco2)CCN(Cc2n[nH]c3c2CCc2ccccc2-3)C1`, for which the melting point lay in the range of 205 to 208 °C.

For the compound `CCOC(=O)C1CSCCN1C(=O)Nc1ccc(Cl)cc1` (centres undefined), the melting point was 152 to 154 °C.

The compound `CCCCCCCCCCCCCCCCCCOc1cc2ccccc2c(N=Nc2ccc(OC)cc2)c1O` gave a melting point of 95 to 97 °C.

With `CCCOC(C)c1ccc(O)cc1` (single isomer, unassigned; (+)), the melting point was 61 to 63 °C.

Take `O=C(CBr)CCc1ccc(Br)cc1`: the melting point was in the range of 63 to 64 °C.

`Cc1ccc(-c2ccc(O)cc2)c(-c2ccc(OCCN3CCCC3)cc2)n1` registered a melting point of 159 to 161 °C.

Compound `CCCCOc1c(CNC(=O)OC(C)(C)C)n(CC(C)C)c(=O)c2ccc(-c3nc(C(=O)O)cs3)cc12` returned a melting point of 195 to 196 °C.

Turning to `CN(C)C=Nc1sc(C=O)c(Br)c1C#N`, the melting point was found to be 220 °C.

In the case of `CCCc1nc(C(=O)O)c(C(=O)O)[nH]1`, the melting point lay within 261 to 263 °C.

In turn, `Brc1cccc2nonc12` displayed a melting point of 92 to 94 °C.

`CCCCCCC(=O)Nc1cccc2c1C1(COc3cc4c(cc31)OCCO4)C(=O)N2C` (centres undefined) registered a melting point of 123 to 124 °C.

`Ic1ccc2c(c1)Cc1cc(I)ccc1-2` showed a melting point of 203 to 207 °C.

`CC(N)Cn1ncc2ccc3oc(C(=O)NCC(C)O)cc3c21` (centres undefined) gave a melting point of 190 to 191 °C.

For the compound `CCC(C)C(C#N)NCC(O)c1ccccc1` (centres undefined), the melting point lay in the range of 106 to 108 °C.

The compound `COc1ccc(Br)c(C=O)c1` displayed a melting point of 73 to 74 °C.

`COc1cc2ncc(N3C(=O)C4CCC3CC4)nc2cc1OC` came in with a melting point of 158 to 159 °C.

`COC(=O)c1ccc(-c2ccc(NC(=O)c3ccc(OC)c(CCCN(C)C)c3)cc2)cc1` came in with a melting point of 188 to 192 °C.

Consider `O=C1NC(=S)NC1Cc1c[nH]c2ccccc12` (centres undefined), for which the melting point was in the range of 206 to 210 °C.

The compound `CCOC(=O)c1nsc(-c2ccc(C)cc2)n1` showed a melting point of 65 to 66.5 °C.

In turn, `Cn1c(=O)[nH]c(=O)c2nc(-c3ccc(/C=C/C(=O)O)cc3)[nH]c21` came in with a melting point of 300 °C.

Regarding `CCCCCCCCCCOc1cc(OCCCOc2ccc(OCc3ccccc3)cc2)cc(C(=O)O)c1`, the melting point is 107 to 109 °C.

Consider `NC(=O)N1C[C@@H](O)[C@H](Oc2ccc(Cl)cc2)C1` (relative stereo), for which the melting point lay in the range of 223 to 225 °C.

Turning to `COc1ccc(-c2csc(NC(=O)C(=O)OCCc3ccccc3)n2)cc1`, the melting point was in the range of 165 to 167 °C.

The compound `Cc1cc(CC(=O)OC(C)(C)C)ccc1NC(=O)Nc1ccccc1C(F)(F)F` gave a melting point of 178 to 180 °C.

For `CC12CCC3C(CC=C4CCCCC43C)C1CC=C2Br` (centres undefined), the melting point fell in the range of 109 to 113 °C.

Compound `COc1ccc2c(c1)C(=O)N(C)C(C(Cl)(Cl)Cl)O2` (centres undefined) registered a melting point of 107 to 110 °C.

On to `CCOC(=O)c1cccc(Nc2nccc(-c3cccnc3)n2)c1`, for which the melting point fell in the range of 197 to 199 °C.

The compound `Nc1cnc(NCCSCc2csc(CN3CCCCC3)c2)[nH]c1=O` came in with a melting point of 150 to 155 °C.

As for `NC(Cc1ccc(OCc2ccccc2)cn1)C(=O)Nc1ccc(CCCC(=O)NO)cc1` (centres undefined), the melting point is over 300 °C.

As for `Cc1ccc2c(c1)C=Cc1cc(C)ccc1C2c1cn(Cc2ccc(C(=O)N[C@@H](CC(=O)O)C(=O)O)o2)c(=O)[nH]c1=S`, the melting point was found to be 195 °C.

With `CC(C)n1cc(-c2c(-c3ccccc3)nn3ccncc23)ccc1=O`, the melting point lay within 196 to 197 °C.

For the compound `COc1ccc(Cl)cc1C(C)(C)c1cc(Cl)ccc1O`, the melting point came to 137 °C.

In turn, `COc1ccc(Nc2nc(C)ncc2S(=O)(=O)c2ccc(OCc3ccccc3)cc2)c(C)n1` gave a melting point of 160 to 165 °C.

The compound `CC(C)(C)c1ccc(OCC(=O)NCc2ccc(NS(C)(=O)=O)cc2)cc1` had a melting point of 163 °C.

Consider `CC(=O)C(=NNc1ccc([N+](=O)[O-])cc1)Sc1ccc(Cl)cc1`, for which the melting point lay in the range of 181 to 183 °C.

`COc1cc(C=CC2=NN=C(C)Cc3cc(OC)c(OC)cc32)ccc1O` displayed a melting point of 192 to 193 °C.

On to `Cc1nc2cnccc2n1-c1ccc(C=Cc2cccc(OCc3nc4cc(F)ccc4s3)c2)cc1`, for which the melting point lay within 178 to 181 °C.

`O=C(CC1CCCCC1=O)c1ccc(-c2ccccc2)cc1` (centres undefined) had a melting point of 108 to 112 °C.

Compound `COc1ccc(-c2cnc(N3CCc4c([nH]c5ccccc45)C3c3ccc4c(c3)OCO4)nc2)cc1` (centres undefined) registered a melting point of 200 to 202 °C.

The compound `Cc1ccc2c(c1)oc1c(C(N)=O)nn(-c3ccc(Cl)cc3Cl)c12` registered a melting point of 185 to 186 °C.

Compound `CC(C)Oc1ccc(C(=O)c2ccc([N+](=O)[O-])cc2)cc1` showed a melting point of 136 to 137 °C.

The compound `CCOC(=O)c1cccc2c1c1c(C)ccc(C)c1n2S(=O)(=O)c1ccc(C)cc1` returned a melting point of 149 °C.

As for `O=C1c2c(Br)cccc2-n2cnc(C(=O)n3ccnc3)c2[C@@H]2CCCN12`, the melting point lay within 215 to 217 °C.

`BrCc1noc2cc3ccccc3cc12` gave a melting point of 111 to 113 °C.

Compound `O=C(O)CCCC(=O)N1CCN(c2cc3c(cc2F)c(=O)c(C(=O)O)c2sccn23)CC1` came in with a melting point of 276 to 278 °C.

In turn, `C=CCN(c1ccccc1CC(=O)N(C)C)c1c(Cl)cccc1Cl` yielded a melting point of 110 to 114 °C.

Take `CCCCCCCCCCCCCCCCCCOCC(O)Cn1cnc2c(N)ncnc21` (centres undefined): the melting point was in the range of 151 to 152 °C.

Regarding `COc1ccc(Nc2nc(Nc3ccc(OC)c(F)c3)nc(OCC3CCCCC3)n2)cc1F`, the melting point came to 181 °C.
